Reference: patent publication US5589486A, “N-hydroxyalkyl-substituted 1,2,3,6-tetrahydro-pyridine and piperidine derivatives” (Richter Gedeon Vegyeszeti Gyar Rt., priority 1991, dated 1996)
Read-outs that look alike come from different tables or passages of the source.

Experiments:
[1] = system: hypoxia; assay: Antihypoxic effect, cytotoxic and hypobaric hypoxia tests taken together; format: in vivo, mice; spontaneously hypertensive (SH) rats; settings: comparison of effects between tests, in words
Procedure: (§1) Male CFLP mice (from the Hungarian stock LATI) weighing 24-26 g each and spontaneously hypertensive (SH) male rats weighing 160-180 g each, respectively were used in these investigations. The compounds to be tested were orally administered in a volume of 10 ml/kg one hour prior to starting the experiment.
After a 1-hour pretreatment, the animals were intravenously injected with 5 mg/kg of potassium cyanide. Survival time was measured as an interval lasting from the administration of potassium cyanide to the last respiratory movement. In the groups consisting of 10 animals each treated with the compounds, the animals having a survival time longer by 30% than the average survival time of the placebo-treated group were considered to be protected. The ED50 values (i.e. the doses being effective in 50% of the animals) were calculated from the percentage of the surviving animals by using probit analysis.
After a 16-hour starving and 1-hour pretreatment period, the animals were placed in a desiccator of 6 liters volume, where the pressure was decreased to 170 mmHg within 20 seconds. The survival time was registered from this time point up to the last respiratory movement of the animals. […] The ED50 values were calculated from the percentage of the animals protected by using probit analysis. […]

[2] = system: hypobaric hypoxia in SH rats; assay: Hypobaric hypoxia test (170 mmHg, survival time); format: in vivo, spontaneously hypertensive (SH) male rats; settings: in words
Procedure: as §1
After a 16-hour starving and 1-hour pretreatment period, the animals were placed in a desiccator of 6 liters volume, where the pressure was decreased to 170 mmHg within 20 seconds. The survival time was registered from this time point up to the last respiratory movement of the animals. Animals having a survival time longer by 30% than the average survival time of the control group were considered to be protected. The ED50 values were calculated from the percentage of the animals protected by using probit analysis.
Various forms of hypoxia were used for investigating the compounds. The functional disorganization and destruction of cells and death, respectively in otherwise healthy mice are caused by a decrease in the oxygen-saturation of haemoglobin in the hypobaric hypoxia and the inhibition of the mitochondrial respiratory enzyme in the cytotoxic hypoxia. Spontaneously hypertensive (SH) rats are more sensitive against hypoxic conditions than normotensive animals; similarly, patients suffering from hypertension have a less chance of survival after hypoxic injuries.

[3] = system: cytotoxic hypoxia in mice; assay: Cytotoxic hypoxia test (potassium cyanide i.v., survival time); format: in vivo, mice (male CFLP); settings: in words
[4] = Acute toxicity study in mice; set-up: species or system mice (OF-1, either sex); settings: mouse, in vivo, po, maximal dose 1000 mg/kg
Procedure: OF-1 mice of either sex weighing 19-21 g were used. The test compound was administered through a catheter inserted into the stomach. A series of solutions was prepared, the concentrations were chosen to give a constant dosage volume of 0.1 ml/10 g. The observation time after the treatment was 72 hours. The LD50 value was calculated according to Litchfield and Wilcoxon from six dose responses (maximal dose 1000 mg/kg p.o., n=10).

[5] = 72 h observation, Litchfield and Wilcoxon, read-out: LD50

SMILES: NC(=O)CN1CCCC1=O [Piracetam, 2-oxo-1-pyrrolidinylacetic acid amide, reference compound]
- antihypoxic effect in the various tests of hypoxia [1]: exerts its effect in the same two tests

SMILES: CC[C@]12CCCN3CCc4c(n(c5ccccc45)[C@@](O)(C(=O)OC)C1)[C@@H]32 [Vincamine, (+)-14β-hydroxy-14α-methoxycarbonyl-14,15-dihydroeburnamenine]
- action in hypobaric hypoxia [2]: prominent tolerance-enhancing action in hypobaric hypoxia
- antihypoxic effect in cytotoxic hypoxia [3]: most pronounced in cytotoxic hypoxia

SMILES: OC(CCN1CCC(c2ccccc2)CC1)c1ccc(Cc2ccc(Cl)cc2)cc1 (stereo not shown) [B, 1-[4-(4-chlorobenzyl)phenyl]-3-(4-phenyl-1-piperidyl)propanol]
- LD50 at 72 h [4]: 697 mg/kg

SMILES: OC(CCN1CC=C(c2ccc(Cl)cc2)CC1)c1ccc(Cl)cc1Cl (stereo not shown) [E, 3-[4-(4-Chlorophenyl)-1,2,3,6-tetrahydro-1-pyridyl]-1-(2,4-dichlorophenyl)propanol]
- LD50 at 72 h [4, 5]: > 1000 mg/kg

SMILES: OC(CN1CC=C(c2ccccc2)CC1)c1ccc(Cc2ccc(Cl)cc2)cc1 (stereo not shown) [A, 1-[4-(4-Chlorobenzyl)phenyl]-2-(4-phenyl-1,2,3,6-tetrahydro-1-pyridyl)ethanol]
- LD50 at 72 h [4, 5]: > 1000 mg/kg
- antihypoxic effect in the various tests of hypoxia [1]: its effects are the same in the various tests of hypoxia
